What follows are compounds tested against T1, recombinant full-length human prolyl endopeptidase (PREP) (Homo sapiens, UniProt P48147) (assay: Biochemical human prolyl endopeptidase (PREP) assay with fluorescently labelled substrate). Conditions: substrate Z-Gly-Pro-AMC 50 μM, 32° C., 60 min; some as mean values from multiple independent determinations.
T1 construct: To recombinant full-length human prolyl endopeptidase (PREP, R&D-Systems, 4308-SE); purchased R&D-Systems 4308-SE
T1 sequence (P48147 1-710): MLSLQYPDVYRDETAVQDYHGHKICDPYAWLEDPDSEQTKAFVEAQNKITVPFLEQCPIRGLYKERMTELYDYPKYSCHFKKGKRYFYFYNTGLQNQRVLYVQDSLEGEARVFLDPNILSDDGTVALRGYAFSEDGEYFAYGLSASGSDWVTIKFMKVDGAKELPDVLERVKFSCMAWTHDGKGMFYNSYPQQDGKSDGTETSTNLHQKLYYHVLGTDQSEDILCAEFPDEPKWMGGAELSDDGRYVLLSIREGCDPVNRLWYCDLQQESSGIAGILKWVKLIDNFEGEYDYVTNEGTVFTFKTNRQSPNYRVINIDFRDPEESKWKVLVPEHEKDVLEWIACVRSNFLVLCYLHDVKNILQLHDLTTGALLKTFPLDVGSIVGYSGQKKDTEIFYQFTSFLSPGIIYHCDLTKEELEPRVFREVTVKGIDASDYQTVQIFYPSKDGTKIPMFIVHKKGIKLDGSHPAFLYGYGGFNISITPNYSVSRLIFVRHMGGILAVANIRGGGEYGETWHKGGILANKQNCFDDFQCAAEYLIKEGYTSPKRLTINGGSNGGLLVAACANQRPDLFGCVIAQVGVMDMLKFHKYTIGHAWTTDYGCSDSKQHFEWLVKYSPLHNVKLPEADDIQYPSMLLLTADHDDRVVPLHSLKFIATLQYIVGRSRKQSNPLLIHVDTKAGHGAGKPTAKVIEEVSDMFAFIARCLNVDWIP
In short: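 Initial rates of fluorescence increase from 50 μM Z-Gly-Pro-AMC cleavage (ex 360/em 465 nm, 60 min, 32° C) give percent PREP activity versus no-compound control, and IC50 is interpolated. Enzyme used at 0.4 nM (final, example) in Tris pH 7.5 with EDTA, GSH, BSA and Brij-35; compounds span 1 nM to 30 μM.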

Row | IC50 | SMILES
1 | 48 nM | O=C(C1CC(C(F)(F)F)Cc2nn(Cc3ccc(Cl)nc3)c(=O)n21)N1CCC(F)(F)C1 (single isomer, unassigned) [Example 231, (5RS,7RS)-2-[(6-Chloropyridin-3-yl)methyl]-5-[(3,3-difluoropyrrolidin-1-yl)carbonyl]-7-(trifluoromethyl)-5,6,7,8-tetrahydro[1,2,4]triazolo[4,3-a]pyridin-3(2H)-one]
2 | 1.7 nM | O=C(C1CC(C(F)(F)F)Cc2nn(Cc3ccnc(C(F)(F)F)c3F)c(=O)n21)N1CC[C@H](F)C1 (mixture of isomers) [Example 256, (5RS,7RS)-5-{[(3S)-3-Fluoropyrrolidin-1-yl]carbonyl}-2-{[3-fluoro-2-(trifluoromethyl)pyridin-4-yl]methyl}-7-(trifluoromethyl)-5,6,7,8-tetrahydro[1,2,4]triazolo[4,3-a]pyridin-3(2H)-one]
3 | 1.75 nM | O=C(C1CCCc2nn(Cc3cc(Cl)cc(Cl)c3)c(=O)n21)N1CCC(F)(F)C1 (racemic) [Example 82, (5RS)-2-(3,5-Dichlorobenzyl)-5-[(3,3-difluoropyrrolidin-1-yl)carbonyl]-5,6,7,8-tetrahydro[1,2,4]triazolo[4,3-a]pyridin-3(2H)-one]
4 | 2.1 nM | O=C(C1CCCc2nn(Cc3cccc(Cl)c3)c(=O)n21)N1CCC(F)(F)C1 (racemic) [Example 44, (5RS)-2-(3-Chlorobenzyl)-5-[(3,3-difluoropyrrolidin-1-yl)carbonyl]-5,6,7,8-tetrahydro[1,2,4]triazolo[4,3-a]pyridin-3(2H)-one]
5 | 0.44 nM | O=C([C@@H]1CCCc2nn(Cc3cc(F)c(F)cc3F)c(=O)n21)N1CC(F)C1 [Example 491, (5S)-5-[(3-Fluoroazetidin-1-yl)carbonyl]-2-(2,4,5-trifluorobenzyl)-5,6,7,8-tetrahydro[1,2,4]triazolo[4,3-a]pyridin-3(2H)-one]
6 | 35 nM | O=C([C@@H]1CCCc2nn(Cc3cnc(C(F)(F)F)nc3)c(=O)n21)N1CC[C@H](F)C1 [Example 559, (5S)-5-{[(3S)-3-Fluoropyrrolidin-1-yl]carbonyl}-2-{[2-(trifluoromethyl)pyrimidin-5-yl]methyl}-5,6,7,8-tetrahydro[1,2,4]triazolo[4,3-a]pyridin-3(2H)-one]
7 | 0.41 nM | O=C(C1CC(C(F)(F)F)Cc2nn(Cc3cncc(Cl)c3)c(=O)n21)N1CC[C@H](F)C1 (single isomer, unassigned) [Example 317]
8 | 0.285 nM | O=C([C@@H]1CCCc2nn(Cc3ccc(Cl)c(F)c3)c(=O)n21)N1C[C@@H](F)[C@@H](F)C1 [Example 462, (5S)-2-(4-Chloro-3-fluorobenzyl)-5-{[(3R,4S)-3,4-difluoropyrrolidin-1-yl]carbonyl}-5,6,7,8-tetrahydro[1,2,4]triazolo[4,3-a]pyridin-3(2H)-one]
9 | 910 nM | O=C(C1CC(C(F)(F)F)Cc2nn(Cc3ccc(Cl)nc3)c(=O)n21)N1CC[C@@H](F)C1 (single isomer, unassigned) [Example 247]
10 | 29 nM | O=C([C@@H]1CCCc2nn(Cc3csc(C(F)(F)F)n3)c(=O)n21)N1CCC(F)(F)C1 [Example 364, (5S)-5-[(3,3-Difluoropyrrolidin-1-yl)carbonyl]-2-{[2-(trifluoromethyl)-1,3-thiazol-4-yl]methyl}-5,6,7,8-tetrahydro[1,2,4]triazolo[4,3-a]pyridin-3(2H)-one]
11 | 4.95 nM | O=C(C1CCCc2nn(Cc3ccc(C(F)(F)F)cn3)c(=O)n21)N1CCCC1 (racemic) [Example 23, (5RS)-5-(Pyrrolidin-1-ylcarbonyl)-2-{[5-(trifluoromethyl)pyridin-2-yl]methyl}-5,6,7,8-tetrahydro[1,2,4]triazolo[4,3-a]pyridin-3(2H)-one]
12 | 3.6 nM | O=C([C@@H]1CC=Cc2nn(Cc3ccc(C(F)(F)F)nc3)c(=O)n21)N1CC[C@H](F)C1 [Example 276, (5S)-5-{[(3S)-3-Fluoropyrrolidin-1-yl]carbonyl}-2-{[6-(trifluoromethyl)pyridin-3-yl]methyl}-5,6-dihydro[1,2,4]triazolo[4,3-a]pyridin-3(2H)-one]
13 | 2.3 nM | O=C(C1CC(C(F)(F)F)Cc2nn(Cc3ccc(Cl)nc3)c(=O)n21)N1CCC(F)(F)C1 (racemic) [Example 230, (5RS,7RS)-2-[(6-Chloropyridin-3-yl)methyl]-5-[(3,3-difluoropyrrolidin-1-yl)carbonyl]-7-(trifluoromethyl)-5,6,7,8-tetrahydro[1,2,4]triazolo[4,3-a]pyridin-3(2H)-one]
14 | 2.2 nM | CC(c1ccc(Cl)cc1)n1nc2n(c1=O)C(C(=O)N1CCCC1)CCC2 (single isomer, unassigned) [Example 4, (5RS)-2-[(1 RS)-1-(4-Chlorophenyl)ethyl]-5-(pyrrolidin-1-ylcarbonyl)-5,6,7,8-tetrahydro[1,2,4]triazolo[4,3-a]pyridin-3(2H)-one]
15 | 24 nM | O=C(C1CC(C(F)(F)F)Cc2nn(Cc3ccc(Cl)nc3)c(=O)n21)N1CCCC1 (single isomer, unassigned) [Example 227, (5RS,7RS)-2-[(6-Chloropyridin-3-yl)methyl]-5-(pyrrolidin-1-ylcarbonyl)-7-(trifluoromethyl)-5,6,7,8-tetrahydro[1,2,4]triazolo[4,3-a]pyridin-3(2H)-one]
16 | 42 nM | O=C(C1CCCc2nn(Cc3ccccn3)c(=O)n21)N1CCCC1 (racemic) [Example 22, (5RS)-2-(Pyridin-2-ylmethyl)-5-(pyrrolidin-1-ylcarbonyl)-5,6,7,8-tetrahydro[1,2,4]triazolo[4,3-a]pyridin-3(2H)-one]
17 | 8.9 nM | Cc1ccc(Cn2nc3n(c2=O)C(C(=O)N2CC=CCC2)CCC3)cc1 (racemic) [Example 158, (5RS)-5-(3,6-Dihydropyridin-1 (2H)-ylcarbonyl)-2-(4-methylbenzyl)-5,6,7,8-tetrahydro[1,2,4]triazolo[4,3-a]pyridin-3(2H)-one]
18 | 2.1 nM | O=C([C@@H]1CCCc2nn(Cc3ccnc(C(F)(F)F)c3F)c(=O)n21)N1CC(F)C1 [Example 483, (5S)-5-[(3-Fluoroazetidin-1-yl)carbonyl]-2-{[3-fluoro-2-(trifluoromethyl)pyridin-4-yl]methyl}-5,6,7,8-tetrahydro[1,2,4]triazolo[4,3-a]pyridin-3(2H)-one]
19 | 6 nM | O=C([C@@H]1CCCc2nn(Cc3ncccc3Cl)c(=O)n21)N1CC(F)C1 [Example 396, (5S)-2-[(3-Chloropyridin-2-yl)methyl]-5-[(3-fluoroazetidin-1-yl)carbonyl]-5,6,7,8-tetrahydro[1,2,4]triazolo[4,3-a]pyridin-3(2H)-one]
20 | 3.6 nM | O=C([C@@H]1CCCc2nn(Cc3ncc(Cl)cc3F)c(=O)n21)N1CCC(F)(F)C1 [Example 406, (5S)-2-[(5-Chloro-3-fluoropyridin-2-yl)methyl]-5-[(3,3-difluoropyrrolidin-1-yl)carbonyl]-5,6,7,8-tetrahydro[1,2,4]triazolo[4,3-a]pyridin-3(2H)-one]
21 | 0.36 nM | O=C([C@@H]1CCCc2nn(Cc3ccc(F)cc3Cl)c(=O)n21)N1C[C@@H](F)[C@@H](F)C1 [Example 474, (5S)-2-(2-Chloro-4-fluorobenzyl)-5-{[(3R,4S)-3,4-difluoropyrrolidin-1-yl]carbonyl}-5,6,7,8-tetrahydro[1,2,4]triazolo[4,3-a]pyridin-3(2H)-one]
22 | 1.2 nM | CC1CCC(C(=O)N2C[C@@H](F)[C@@H](F)C2)n2c1nn(Cc1ccc(F)cc1F)c2=O (mixture of isomers) [Example 324, (5RS,8RS)-2-(2,4-Difluorobenzyl)-5-{[(3R,4S)-3,4-difluoropyrrolidin-1-yl]carbonyl}-8-methyl-5,6,7,8-tetrahydro[1,2,4]triazolo[4,3-a]pyridin-3(2H)-one]
23 | 6.4 nM | O=C([C@@H]1CCC(F)(F)c2nn(Cc3ccc(Cl)cn3)c(=O)n21)N1CC(F)C1 [Example 587, (5S)-2-[(5-Chloropyridin-2-yl)methyl]-8,8-difluoro-5-[(3-fluoroazetidin-1-yl)carbonyl]-5,6,7,8-tetrahydro[1,2,4]triazolo[4,3-a]pyridin-3(2H)-one]
24 | 24 nM | O=C(C1C(C(F)(F)F)CCc2nn(Cc3ccc(Cl)cn3)c(=O)n21)N1CC[C@H](F)C1 (mixture of isomers) [Example 298, (5RS,6RS)-2-[(5-Chloropyridin-2-yl)methyl]-5-{[(3S)-3-fluoropyrrolidin-1-yl]carbonyl}-6-(trifluoromethyl)-5,6,7,8-tetrahydro[1,2,4]triazolo[4,3-a]pyridin-3(2H)-one]
25 | 7.4 nM | O=C(C1CCCc2nn(Cc3ccc(C(F)(F)F)nc3)c(=O)n21)N1CC(F)C1 (racemic) [Example 96, (5RS)-5-[(3-Fluoroazetidin-1-yl)carbonyl]-2-{[6-(trifluoromethyl)pyridin-3-yl]methyl}-5,6,7,8-tetrahydro[1,2,4]triazolo[4,3-a]pyridin-3(2H)-one]

— patent US10722501B2 (BAYER AKTIENGESELLSCHAFT, priority 2016, dated 2020)
